Test results from patent US7670784B2, “β-Benzyloxyaspartic acid derivatives having two substituents on their benzene rings” (Suntory Holdings Limited, priority 2004, dated 2010).

Key:
human EAAT3 = biological target: T1, human EAAT3 (Homo sapiens, UniProt P43005); assay: [14C]glutamate uptake inhibition in human EAAT3 constitutively expressed in MDCK cells; type: cell-based; details: 1 μM L-[14C]glutamate, 12 minutes incubation
T1 construct: expressed in transfected cells; host or cells: MDCK (Madin-Darby Canine Kidney) cells
T1 sequence (P43005 1-524): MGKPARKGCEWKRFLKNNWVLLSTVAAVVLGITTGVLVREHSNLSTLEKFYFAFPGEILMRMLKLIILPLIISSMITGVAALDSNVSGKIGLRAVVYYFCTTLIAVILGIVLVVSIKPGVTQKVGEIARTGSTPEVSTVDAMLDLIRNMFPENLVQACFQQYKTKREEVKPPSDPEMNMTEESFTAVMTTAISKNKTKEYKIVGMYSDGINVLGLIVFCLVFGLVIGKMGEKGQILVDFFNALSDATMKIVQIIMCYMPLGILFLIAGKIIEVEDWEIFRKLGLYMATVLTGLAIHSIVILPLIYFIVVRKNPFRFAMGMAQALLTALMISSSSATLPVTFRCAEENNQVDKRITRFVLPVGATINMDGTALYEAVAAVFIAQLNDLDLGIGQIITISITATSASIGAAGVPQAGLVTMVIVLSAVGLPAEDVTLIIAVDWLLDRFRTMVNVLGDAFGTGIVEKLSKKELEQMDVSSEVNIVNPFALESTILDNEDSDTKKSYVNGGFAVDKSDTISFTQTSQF
Method: (§1) According to the known method (Shimamoto, K. et al., Mol. Pharmacol. 53, 195-201, 1998; Bioorg. Med. Chem. Lett. 10, 2407-2410, 2000), the inhibitory effect against [^14C]glutamate uptake was measured in human EAAT2 or EAAT3 constitutively expressed in MDCK (Madin-Darby Canine Kidney) cells. Glutamate uptake activity was determined as follows: 1 μM L-[^14C]glutamate and a sample at a given concentration were added and incubated for 12 minutes, followed by solubilizing the cells to measure incorporated radioactivity with a liquid scintillator. The amount of uptake was expressed as a percentage, assuming that uptake in the absence of a test compound (buffer alone) was set to 100% and uptake in a sodium-free solution was set to 0%.

human EAAT2 = biological target: T2, human EAAT2 (Homo sapiens, UniProt P43004); assay: [14C]glutamate uptake inhibition in human EAAT2 constitutively expressed in MDCK cells; type: cell-based; details: 1 μM L-[14C]glutamate, 12 minutes incubation
T2 construct: expressed in transfected cells; host or cells: MDCK (Madin-Darby Canine Kidney) cells
T2 sequence (P43004 whole entry): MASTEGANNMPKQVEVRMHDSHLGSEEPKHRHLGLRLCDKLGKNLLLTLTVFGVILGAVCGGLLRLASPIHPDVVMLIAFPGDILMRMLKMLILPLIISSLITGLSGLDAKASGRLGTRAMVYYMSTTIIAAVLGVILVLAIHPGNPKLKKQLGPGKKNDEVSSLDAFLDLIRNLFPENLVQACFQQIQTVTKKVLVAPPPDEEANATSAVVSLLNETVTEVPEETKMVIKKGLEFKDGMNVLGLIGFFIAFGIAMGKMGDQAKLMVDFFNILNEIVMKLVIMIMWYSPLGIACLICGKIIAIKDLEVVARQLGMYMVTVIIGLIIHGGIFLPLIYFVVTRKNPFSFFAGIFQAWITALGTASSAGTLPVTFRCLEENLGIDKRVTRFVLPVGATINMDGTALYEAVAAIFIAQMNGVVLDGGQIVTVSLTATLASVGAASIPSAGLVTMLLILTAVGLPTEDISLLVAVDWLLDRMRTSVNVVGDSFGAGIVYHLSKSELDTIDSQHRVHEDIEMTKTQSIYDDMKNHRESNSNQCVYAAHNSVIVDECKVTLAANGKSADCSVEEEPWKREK
Method: as §1

glutamate transporters = details: Shimamoto et al., Mol. Pharmacol. 65, 2004; cited from earlier work

SMILES	IC50 (human EAAT3) [µM]	IC50 (human EAAT2) [µM]	IC50 value for uptake inhibitory activity (glutamate transporters)
NCCOCCOCCOCCOCC(=O)NCCCCCC(=O)NCCCCCC(=O)Nc1cc(CO[C@H](C(=O)O)[C@H](N)C(=O)O)cc(NC(=O)c2ccc(C(F)(F)F)cc2)c1 [Compound 10, (2S,3S)-3-(3-(6-(6-(2-(2-(2-(2-(2-aminoethoxy)ethoxy)ethoxy)ethoxy)acetamido)hexanamido)hexanamido)-5-(4-(trifluoromethyl)benzamido)benzyloxy)aspartic acid]	0.805	0.023	–
N[C@H](C(=O)O)[C@H](OCc1cccc(NC(=O)c2ccc(C(F)(F)F)cc2)c1)C(=O)O [TFB-TBOA]	–	–	in the order of nM

Now from value to compound, other results behind:

IC50 (human EAAT3) [µM]	IC50 (human EAAT2) [µM]	SMILES	IC50 value for uptake inhibitory activity (glutamate transporters)
0.00046	0.0013	N[C@H](C(=O)O)[C@H](OCc1cc(NC(=O)c2ccc(C(F)(F)F)cc2)cc(NC(=O)c2ccc(C(F)(F)F)cc2)c1)C(=O)O [Compound 11, (2S,3S)-3-{3,5-bis[4-(trifluoromethyl)benzamido]benzyloxy}aspartic acid]	–
0.112	0.0047	CCC(=O)Nc1cc(CO[C@H](C(=O)O)[C@H](N)C(=O)O)cc(NC(=O)c2ccc(C(F)(F)F)cc2)c1 [Compound 14, (2S,3S)-3-(3-propionylamido-5-[4-(trifluoromethyl)benzamido]benzyloxy)aspartic acid]	–
1.3	1.3	N[C@H](C(=O)O)[C@H](OCc1ccccc1)C(=O)O [L-TBOA, L-threo-β-benzyloxyaspartic acid, reference compound]	–
